We go through 26 compounds from patent publication US20230286925A1, “PHENYL TRIAZOLE MLL1-WDR5 PROTEIN-PROTEIN INTERACTION INHIBITOR” (HUYABIO International, LLC, priority 2022, published 2023).

Where two headings read alike, the source gives them in different places.

The target in test [1] is MLL1-WDR5 protein-protein interaction (Homo sapiens (Human), UniProt P61964). As to the kind of experiment: WDR5 TR-FRET assay of inhibition against MLL1-WDR5 protein-protein interaction. In kind it is binding. The procedure: WDR5 TR-FRET Assay Procedure: Stock compounds were transferred to the assay plate by Echo Liquid Handler. Reactions were performed in the assay buffer (1×PBS, 300 mM NaCl, 0.5 mM TCEP, 0.1% CHAPS) containing 5 nM WDR5 protein, 10 nM peptide (Ac-ARTEVHLRKS-[Ahx-Ahx] [C]-Alexa Fluor 488-NH2) and 0.25 nM Tb-anti His antibody (Tb-Ab) in 384-well white plate (PerkinElmer) with a final volume of 20 μl. Compounds were incubated with WDR5 protein for 30 min at room temperature. Plates were covered, protected from light and incubated for 60 min at room temperature after adding the peptide and Tb-Ab. EnVision Multimode Plate Reader (PerkinElmer) was used for the TR-FRET assay with excitation wavelength at 340 nm and emission wavelength at 495 and 520 nm. The ratio of the 520/495 wavelengths were used to assess the degree of the FRET signal. IC50 was calculated by fitting the inhibition data using XLfit software to sigmoidal dose-response model.
Biphenyl compound DDO-2084 was reported to be a small molecule inhibitor that can inhibit MLL1-WDR5 protein-protein interaction, reduce MLL1 enzyme catalytic activity, and downregulate the expression of Hox and Meis-1 genes (Eur. J. Med. Chem. 2016, 124, 480-489). DDO-2084 is used as a positive control compound.

Test [2] concerns MV-411 cells. Briefly: Anti-proliferative activity against leukemia cells (CellTiterGlo viability, 72 hrs). It counts as cell-based. The protocol: Procedure: MV-411 or Molm-13 cells were seeded into 384 well plates at 2000 cells/well density in 50 uL according plate map and were allowed to naturally sediment by waiting about 30 min in Clean Bench. Next, plated cells were centrifuged for 1 min at 1000 rpm and the excess cells were transferred into the flasks for further culture. Cells in the assay plates were incubated (at least 4 hrs) at 37° C., 5% CO2 for next process followed by adding the compounds as the plate map indicated. The tests were performed in duplicates with treatment of compounds at 10 pts 3 fold titration in 384 well plates. Taxol was as positive control while DMSO as negative control. To rule out edge effect, the wells on the edge were not seeded and therefore one 384 well plate holds 13 compounds. Cells viability was measured 72 hrs after incubation with compounds and using CellTiterGlo (promega) viability assay according to manufactory's instruction to check the ATP production in each well.
Experiments on anti-proliferative activity against leukemia cells were conducted with some of the compounds of the invention.

Where [3] appears, read: Table 7, read-out: WDR5 TR-FRET Assay (IC50 nM).
[4] abbreviates: MV4-11, MV-411 human acute monocytic leukemia cell, Table 7.
[5] abbreviates: MV4-11, MV-411 human acute monocytic leukemia cell, Table 6.

Regarding “1-(3-(5-amino-2-chloro-4-fluoro-3-methylbenzamido)-4-(4-methylpiperazin-1-yl)phenyl)-N-(2-ethoxyethyl)-1H-1,2,3-triazole-4-carboxamide [HYBI_002]”, the IC50 in test [1] (WDR5 TR-FRET, 5 nM WDR5 protein, 10 nM peptide, read-out: MLL1-WDR5 PPI inhibitory activity) is 44.2 nM. Also, halving of growth in test [2] (MV-411 human acute monocytic leukemia cell, Table 6) (GI50) required 6.31 µM.
For `C[C@H]1CN(c2cc(F)c(-c3ccc(C(=O)N(C)C)cc3)cc2Nc2ncnc(Cl)c2N)CCN1C` [DDO-2213_001, (S)-5′-((5-amino-6-chloropyrimidin-4-yl)amino)-4′-(3,4-dimethylpiperazin-1-yl)-2′-fluoro-N,N-dimethyl-[1,1′-biphenyl]-4-carboxamide], the IC50 in test [1] (setting [3]) is 11.1 nM. Besides, growth in test [2] (setting [4]) was halved (GI50) at 11.6 µM.
In the case of `C[C@@H]1CN(c2cc(F)c(-c3ccc(C(=O)N(C)C)cc3)cc2Nc2ncnc(Cl)c2N)C[C@H](C)N1C` [DDO-2213_002, 4-[5-[(5-amino-6-chloro-pyrimidin-4-yl)amino]-2-fluoro-4-[(3R,5S)-3,4,5-trimethylpiperazin-1-yl]phenyl]-N,N-dimethyl-benzamide], in test [1] (setting [3]), the IC50 stood at 55.5 nM. In test [2] (setting [4]), this compound registered a GI50 of 15.6 µM.
On the same counts, the results for `CN1CCCN(c2cc(F)c(-c3ccc(C(=O)N(C)C)cc3)cc2Nc2ncnc(Cl)c2N)CC1` [DDO-2213_003, 5′-((5-amino-6-chloropyrimidin-4-yl)amino)-2′-fluoro-N,N-dimethyl-4′-(4-methyl-1,4-diazepan-1-yl)-[1,1′-biphenyl]-4-carboxamide] are 395 nM and 59.9 µM.
On the same counts, the results for `CC(C)NC(=O)c1ccc(-c2cc(Nc3ncnc(Cl)c3N)c(N3C[C@@H](C)N(C)[C@@H](C)C3)cc2F)cc1` [DDO-2213_004, 5′-((5-amino-6-chloropyrimidin-4-yl)amino)-2′-fluoro-N-isopropyl-4′-((3S,5R)-3,4,5-trimethylpiperazin-1-yl)-[1,1′-biphenyl]-4-carboxamide] are 68.8 nM and 14.8 µM.
On the same counts, the results for `C[C@H]1CN(c2cc(F)c(-c3ccc(NC(=O)C4CCCCC4)cc3)cc2Nc2ncnc(Cl)c2N)CCN1C` [DDO-2213_005, (S)—N-(5′-((5-amino-6-chloropyrimidin-4-yl)amino)-4′-(3,4-dimethylpiperazin-1-yl)-2′-fluoro-[1,1′-biphenyl]-4-yl)cyclohexanecarboxamide] are 11.1 nM and 3.37 µM.
With `C[C@@H]1CN(c2cc(F)c(-c3ccc(NC(=O)C4CCCCC4)cc3)cc2Nc2ncnc(Cl)c2N)C[C@H](C)N1C` [DDO-2213_006, N-(5′-((5-amino-6-chloropyrimidin-4-yl)amino)-2′-fluoro-4′-((3S,5R)-3,4,5-trimethylpiperazin-1-yl)-[1,1′-biphenyl]-4-yl)cyclohexanecarboxamide], in test [1] (setting [3]), the IC50 was found to be 38.6 nM. In test [2] (setting [4]), halving of growth (GI50) required 6.09 µM.
The like results for `CCCC(=O)Nc1ccc(-c2cc(Nc3ncnc(Cl)c3N)c(N3C[C@@H](C)N(C)[C@@H](C)C3)cc2F)cc1` [DDO-2213_007, N-(5′-((5-amino-6-chloropyrimidin-4-yl)amino)-2′-fluoro-4′-((3S,5R)-3,4,5-trimethylpiperazin-1-yl)-[1,1′-biphenyl]-4-yl)butyramide] were, in that order, 51.3 nM and 11.5 µM.
The like results for `C[C@H]1CN(c2cc(F)c(-c3ccnc(OCC4CC4)c3)cc2Nc2ncnc(Cl)c2N)CCN1C` [DDO-2213_008, (S)-6-chloro-N4-(5-(2-(cyclopropylmethoxy)pyridin-4-yl)-2-(3,4-dimethylpiperazin-1-yl)-4-fluorophenyl)pyrimidine-4,5-diamine] were, in that order, 8.63 nM and 4.76 µM.
Consider `C[C@@H]1CN(c2cc(F)c(-c3ccnc(OCC4CC4)c3)cc2Nc2ncnc(Cl)c2N)C[C@H](C)N1C` [DDO-2213_009, 6-chloro-N4-(5-(2-(cyclopropylmethoxy)pyridin-4-yl)-4-fluoro-2-((3S,5R)-3,4,5-trimethylpiperazin-1-yl)phenyl)pyrimidine-4,5-diamine], for which the IC50 in test [1] (setting [3]) was 33.9 nM. The same compound displayed a GI50 in test [2] (setting [4]) of 1.69 µM.
On the same counts, the results for `C[C@@H]1CN(c2cc(F)c(-n3cc(C(=O)N4CCOCC4)nn3)cc2Nc2ncnc(Cl)c2N)C[C@H](C)N1C` [DDO-2213_010, (1-(5-((5-amino-6-chloropyrimidin-4-yl)amino)-2-fluoro-4-((3S,5R)-3,4,5-trimethylpiperazin-1-yl)phenyl)-1H-1,2,3-triazol-4-yl)(morpholino)methanone] are 250 nM and 7.93 µM.
In the case of `C[C@H]1CN(c2ccc(-c3ccc(C(=O)NCCN4CCOCC4)cc3)c(F)c2Nc2ncnc(Cl)c2N)CCN1C` [DDO-2213_012, (S)-3′-((5-amino-6-chloropyrimidin-4-yl)amino)-4′-(3,4-dimethylpiperazin-1-yl)-2′-fluoro-N-(2-morpholinoethyl)-[1,1′-biphenyl]-4-carboxamide], in test [1] (setting [3]), the IC50 amounted to 56.4 nM. In addition, in test [2] (setting [4]), the GI50 worked out at 104 µM.
On to `C[C@@H]1CN(c2ccc(-c3ccc(NC(=O)C4CCCCC4)cc3)c(F)c2Nc2ncnc(Cl)c2N)C[C@H](C)N1C` [DDO-2213_014, N-(3′-((5-amino-6-chloropyrimidin-4-yl)amino)-2′-fluoro-4′-((3S,5R)-3,4,5-trimethylpiperazin-1-yl)-[1,1′-biphenyl]-4-yl)cyclohexanecarboxamide], for which, in test [1] (setting [3]), the IC50 was 186 nM. In addition, the GI50 in test [2] (setting [4]) stood at 8.26 µM.
The like results for `C[C@@H]1CN(c2ccc(-c3ccc(NC(=O)CC4CCCCC4)cc3)c(F)c2Nc2ncnc(Cl)c2N)C[C@H](C)N1C` [DDO-2213_015, N-(3′-((5-amino-6-chloropyrimidin-4-yl)amino)-2′-fluoro-4′-((3S,5R)-3,4,5-trimethylpiperazin-1-yl)-[1,1′-biphenyl]-4-yl)-2-cyclohexylacetamide] were, in that order, 85.5 nM and 4.14 µM.
On the same counts, the results for `C[C@H]1CN(c2cc(F)c(-c3ccc(C(=O)NCC4CCOCC4)cc3)cc2Nc2ncnc(Cl)c2N)CCN1C` [DDO-2213_016, (S)-5′-((5-amino-6-chloropyrimidin-4-yl)amino)-4′-(3,4-dimethylpiperazin-1-yl)-2′-fluoro-N-((tetrahydro-2H-pyran-4-yl)methyl)-[1,1′-biphenyl]-4-carboxamide] are 12.2 nM and 6.31 µM.
Consider `C[C@@H]1CN(c2cc(F)c(-c3ccc(CN4CCOCC4)cc3)cc2Nc2ncnc(Cl)c2N)C[C@H](C)N1C` [DDO-2213_018, 6-chloro-N4-(6-fluoro-4′-(morpholinomethyl)-4-((3S,5R)-3,4,5-trimethylpiperazin-1-yl)-[1,1′-biphenyl]-3-yl)pyrimidine-4,5-diamine], for which the IC50 in test [1] (setting [3]) worked out at 110 nM. In test [2] (setting [4]), this compound returned a GI50 of 10.8 µM.
The like results for `C[C@@H]1CN(c2cc(F)c(-c3cccc(CN4CCOCC4)c3)cc2Nc2ncnc(Cl)c2N)C[C@H](C)N1C` [DDO-2213_019, 6-chloro-N4-(6-fluoro-3′-(morpholinomethyl)-4-((3S,5R)-3,4,5-trimethylpiperazin-1-yl)-[1,1′-biphenyl]-3-yl)pyrimidine-4,5-diamine] were, in that order, 215 nM and 6.98 µM.
Turning to `Cc1c(F)c(N)cc(C(=O)Nc2cc(-n3cc(C(=O)NCCCN4CCOCC4)nn3)ccc2N2CCN(C)C(C)C2)c1Cl` (stereo not shown) [DDO-2306], in test [2] (setting [5]), growth was halved (GI50) at 7.11 µM.
For the compound `Cc1c(F)c(N)cc(C(=O)Nc2cc(-n3cc(C(=O)NCCCN4CCOCC4)nn3)ccc2N2CCN(C)[C@H](C)C2)c1Cl` [DDO-2308], the GI50 in test [2] (setting [5]) was determined as 9.29 µM.
Same read-out and setting: for `Cc1c(F)c(N)cc(C(=O)Nc2cc(-n3cc(C(=O)NCCCN4CCOCC4)nn3)c(F)cc2N2CCN(C)[C@@H](C)C2)c1Cl` [DDO-2312] the value was 24.5 µM; for `Cc1c(F)c(N)cc(C(=O)Nc2cc(-n3cc(C(=O)NCCCN4CCOCC4)nn3)c(F)cc2N2CCN(C)[C@H](C)C2)c1Cl` [DDO-2313], 40.9 µM; for `COc1cc(N2CCN(C)CC2)c(NC(=O)c2cc(N)c(F)c(C)c2Cl)cc1-n1cc(C(=O)NCCCN2CCOCC2)nn1` [DDO-2315], 24.5 µM.
Same read-out and setting: for `COC(=O)c1cn(-c2cc(NC(=O)c3cc(N)c(F)c(C)c3Cl)c(N3CCN(C)CC3)cc2F)nn1` [DDO-2316] the value was 25.4 µM.
With `Cc1c(F)c(N)cc(C(=O)Nc2cc(-n3cc(C(=O)OCC4(C)CCCCC4)nn3)ccc2N2CCN(C)CC2)c1Cl` [HYBI_014], in test [2] (setting [5]), halving of growth (GI50) required 2.62 µM.
Same read-out and setting: under `Cc1cc(C(=O)Nc2cc(-n3cc(C(=O)NCCCN4CCOCC4)nn3)ccc2N2CCN(C)CC2)ccc1F` [HYBI_041] stands 13.2 µM.
As for `CN1CCN(c2ccc(-n3cc(C(=O)NCCCN4CCOCC4)nn3)cc2NC(=O)c2ccc(O)cc2C(F)(F)F)CC1` [HYBI_043], in test [2] (setting [5]), the GI50 turned out to be 76 µM.
